Source: the Kinase Knowledgebase extract (Sharma et al. 2016)

Target: PIK3CG (human) (UniProt P48736)
Assay: Assessment of PIK3CG Kinase Activity

Chain of PIK3CG (human) (P48736 whole entry, looked up): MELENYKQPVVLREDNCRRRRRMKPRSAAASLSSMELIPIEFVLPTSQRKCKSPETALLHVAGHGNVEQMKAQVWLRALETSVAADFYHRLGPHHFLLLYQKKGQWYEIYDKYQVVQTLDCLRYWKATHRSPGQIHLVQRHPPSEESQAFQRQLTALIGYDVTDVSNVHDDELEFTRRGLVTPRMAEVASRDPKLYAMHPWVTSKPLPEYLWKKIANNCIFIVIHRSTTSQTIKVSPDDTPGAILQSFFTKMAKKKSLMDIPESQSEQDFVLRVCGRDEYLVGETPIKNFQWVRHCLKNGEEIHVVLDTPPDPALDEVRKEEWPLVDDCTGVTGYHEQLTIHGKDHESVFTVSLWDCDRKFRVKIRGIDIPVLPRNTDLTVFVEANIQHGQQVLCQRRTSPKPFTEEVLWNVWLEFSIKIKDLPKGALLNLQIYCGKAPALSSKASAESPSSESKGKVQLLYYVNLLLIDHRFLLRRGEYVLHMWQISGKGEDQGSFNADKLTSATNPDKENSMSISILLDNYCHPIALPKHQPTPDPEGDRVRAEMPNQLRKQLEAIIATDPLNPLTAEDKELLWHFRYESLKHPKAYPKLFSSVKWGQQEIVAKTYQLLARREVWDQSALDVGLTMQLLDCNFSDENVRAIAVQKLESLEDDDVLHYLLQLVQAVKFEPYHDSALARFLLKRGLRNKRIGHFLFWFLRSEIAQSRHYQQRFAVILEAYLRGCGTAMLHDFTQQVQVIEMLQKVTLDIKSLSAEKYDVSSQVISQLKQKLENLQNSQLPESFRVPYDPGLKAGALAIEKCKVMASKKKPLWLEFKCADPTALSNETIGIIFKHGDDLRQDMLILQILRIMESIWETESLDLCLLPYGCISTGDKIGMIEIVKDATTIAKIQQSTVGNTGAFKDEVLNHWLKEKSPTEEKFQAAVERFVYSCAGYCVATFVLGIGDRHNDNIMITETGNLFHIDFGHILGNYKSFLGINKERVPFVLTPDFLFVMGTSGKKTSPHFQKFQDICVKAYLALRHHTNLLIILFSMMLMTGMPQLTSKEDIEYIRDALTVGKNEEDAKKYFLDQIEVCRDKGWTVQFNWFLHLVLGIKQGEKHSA

IC50 [nM]	Structure (SMILES)
< 800	O=C(NCC1CCCNC1)Nc1nc2c(s1)-c1c(c(-c3cncnc3)nn1-c1ccccc1Cl)CC2 (stereo unspecified)
< 800	CN[C@@H](C)C(=O)N1CCC[C@@H]1CNC(=O)Nc1nc2c(s1)-c1c(c(-c3cncnc3)nn1-c1ccccc1Cl)CC2
< 800	NC(=O)c1cccc(CNC(=O)Nc2nc3c(s2)-c2c(c(-c4cncnc4)nn2-c2ccccc2Cl)CC3)c1
< 800	O=C(NCCC(=O)N1CCCCC1)Nc1nc2c(s1)-c1c(c(-c3cncnc3)nn1-c1ccccc1Cl)CC2
< 800	O=C(NCCc1nc(C2CC2)no1)Nc1nc2c(s1)-c1c(c(-c3cncnc3)nn1-c1ccccc1Cl)CC2
< 800	COC(=O)N1CCC[C@@H]1CNC(=O)Nc1nc2c(s1)-c1c(c(-c3cncnc3)nn1-c1ccccc1Cl)CC2
< 800	CN1CCN(C(=O)N2CCC[C@@H]2CNC(=O)Nc2nc3c(s2)-c2c(c(-c4cncnc4)nn2-c2ccccc2Cl)CC3)CC1
< 800	CCOC(=O)N1CCC[C@@H]1CNC(=O)Nc1nc2c(s1)-c1c(c(-c3cncnc3)nn1-c1ccccc1Cl)CC2
< 800	CC(C)CNC(=O)CCNC(=O)Nc1nc2c(s1)-c1c(c(-c3cncnc3)nn1-c1ccccc1Cl)CC2
< 800	O=C(Nc1nc2c(s1)-c1c(c(-c3cncnc3)nn1-c1ccccc1Cl)CC2)N1CCC(NC(=O)C(F)(F)F)C1 (stereo unspecified)
< 800	CC(C)(C)OC(=O)N1CCC[C@H]1CNC(=O)Nc1nc2c(s1)-c1c(c(-c3cncnc3)nn1-c1ccccc1Cl)CC2
< 800	CCN(CC)C(=O)N1CC[C@H](CNC(=O)Nc2nc3c(s2)-c2c(c(-c4cncnc4)nn2-c2ccccc2Cl)CC3)C1
< 800	C[C@@H](C(=O)N1CC[C@H](CNC(=O)Nc2nc3c(s2)-c2c(c(-c4cncnc4)nn2-c2ccccc2Cl)CC3)C1)N(C)C(=O)OC(C)(C)C
< 800	O=C(NC[C@H]1CCN(C(=O)N2CCCCC2)C1)Nc1nc2c(s1)-c1c(c(-c3cncnc3)nn1-c1ccccc1Cl)CC2
< 800	CCN1CCC[C@H]1CNC(=O)Nc1nc2c(s1)-c1c(c(-c3cccnc3)nn1-c1ccccc1Cl)CC2
< 800	CC(C)(C)OC(=O)N1CCCC(NC(=O)Nc2nc3c(s2)-c2c(c(-c4cncnc4)nn2-c2ccccc2Cl)CC3)C1 (stereo unspecified)
< 800	CC(C)(C)COC(=O)N1CCC[C@@H]1CNC(=O)Nc1nc2c(s1)-c1c(c(-c3cncnc3)nn1-c1ccccc1Cl)CC2
< 800	O=C(NC[C@H]1CCCN1)Nc1nc2c(s1)-c1c(c(-c3cncnc3)nn1-c1ccccc1Cl)CC2
< 800	CC(C)(C)OC(=O)N1CCC[C@@H]1CNC(=O)Nc1nc2c(s1)-c1c(c(-c3cccnc3)nn1-c1ccccc1Cl)CC2
< 800	O=C(NCc1cccnc1N1CCCC1)Nc1nc2c(s1)-c1c(c(-c3cncnc3)nn1-c1ccccc1Cl)CC2

Second part, the molecule before the results:

Structure (SMILES)	IC50 [nM]
NS(=O)(=O)c1ccc(-n2nc(-c3cccnc3)c3c2-c2sc(NC(=O)NCc4cccc(N5CCNC5=O)c4)nc2CC3)c(Cl)c1	< 800
CCn1cnc(CCNC(=O)Nc2nc3c(s2)-c2c(c(-c4cccnc4)nn2C2CCN(C4CCCC4)CC2)CC3)c1	< 800
O=C(NCCN1CCOCC1)Nc1nc2c(s1)-c1c(c(-c3cncnc3)nn1-c1ccccc1F)CC2	< 800
CN(C)C(=O)CCNC(=O)Nc1nc2c(s1)-c1c(c(-c3cccnc3)nn1C1CCN(C3CCCC3)CC1)CC2	< 800
CCc1csc(CCNC(=O)Nc2nc3c(s2)-c2c(c(-c4ccccc4)nn2-c2cccc(Cl)c2)CC3)n1	< 800
O=C1CC[C@H](NC(=O)Nc2nc3c(s2)-c2c(c(-c4cccnc4)nn2-c2ccccc2Cl)CC3)CN1	< 800
Cc1nc[nH]c1-c1cccc(CNC(=O)Nc2nc3c(s2)-c2c(c(-c4cccnc4)nn2-c2ccccc2Cl)CC3)c1	< 800
CN(C)C(=O)CCNC(=O)Nc1nc2c(s1)-c1c(c(-c3ccccc3)nn1-c1ccccc1Cl)CC2	< 800
CNC(=O)[C@@H]1CCCC[C@H]1NC(=O)Nc1nc2c(s1)-c1c(c(-c3ccccc3)nn1-c1ccccc1Cl)CC2	< 800
CNC(=O)c1cccc(CNC(=O)Nc2nc3c(s2)-c2c(c(-c4cccnc4)nn2-c2ccccc2Cl)CC3)c1	< 800
NC(=O)c1cccc(CNC(=O)Nc2nc3c(s2)-c2c(c(-c4cccnc4)nn2C2CCN(C4CCCC4)CC2)CC3)c1	< 800
CC(C)(C)OC(=O)CNC(=O)Nc1nc2c(s1)-c1c(c(-c3cccnc3)nn1C1CCN(C3CCCC3)CC1)CC2	< 800
CC(C)(C)OC(=O)CCNC(=O)Nc1nc2c(s1)-c1c(c(C3CC3)nn1-c1ccccc1Cl)CC2	< 800
COc1cc(CNC(=O)Nc2nc3c(s2)-c2c(c(-c4cncnc4)nn2-c2ccccc2Cl)CC3)cc(OC)c1	< 800
CC(C)(C)OC(=O)CCNC(=O)Nc1nc2c(s1)-c1c(c(-c3ccccc3)nn1-c1cccc(Cl)c1)CC2	< 800
O=C(NCc1cccc(-c2ccccc2)c1)Nc1nc2c(s1)-c1c(c(-c3cncnc3)nn1-c1ccccc1Cl)CC2	< 800
CC(=O)Nc1cccc(CNC(=O)Nc2nc3c(s2)-c2c(c(C4CC4)nn2-c2ccccc2Cl)CC3)c1	< 800
O=C(NCc1ccccc1N1CCCCC1)Nc1nc2c(s1)-c1c(c(-c3cccnc3)nn1-c1ccccc1Cl)CC2	< 800

Structure (SMILES)	IC50 [nM]
CC(C)(C)OC(=O)NCc1ccccc1NC(=O)Nc1nc2c(s1)-c1c(c(-c3cccnc3)nn1-c1ccccc1Cl)CC2	< 800
CC(=O)N(C)c1cccc(CNC(=O)Nc2nc3c(s2)-c2c(c(C4CC4)nn2-c2ccccc2Cl)CC3)c1	< 800
CCc1nnc(CCNC(=O)Nc2nc3c(s2)-c2c(c(-c4cncnc4)nn2-c2ccccc2Cl)CC3)o1	< 800
CCc1cnc(CCNC(=O)Nc2nc3c(s2)-c2c(c(-c4ccccc4)nn2-c2cccc(Cl)c2)CC3)o1	< 800
CN(C)C(=O)[C@@H]1CCCC[C@H]1NC(=O)Nc1nc2c(s1)-c1c(c(-c3ccccc3)nn1-c1ccccc1Cl)CC2	< 800
CCc1cnc(CCNC(=O)Nc2nc3c(s2)-c2c(c(-c4ccccc4)nn2-c2ccccc2Cl)CC3)o1	< 800
CN1CCN(Cc2ccc(NC(=O)Nc3nc4c(s3)-c3c(c(-c5cncnc5)nn3-c3ccccc3F)CC4)cc2)CC1	< 800
O=C(NCCc1nc(C2CC2)no1)Nc1nc2c(s1)-c1c(c(-c3ccccc3)nn1-c1cccc(Cl)c1)CC2	< 800
CC(C)(C)OC(=O)CCNC(=O)Nc1nc2c(s1)-c1c(c(Nc3ccccn3)nn1-c1ccccc1)CC2	< 800
CN(C)C(=O)CNC(=O)Nc1nc2c(s1)-c1c(c(-c3cccnc3)nn1-c1ccccc1Cl)CC2	< 800
CN1CCC(n2nc(-c3cccnc3)c3c2-c2sc(NC(=O)NCC(=O)N(C)C)nc2CC3)CC1	< 800
CC(C)c1cnc(CCNC(=O)Nc2nc3c(s2)-c2c(c(-c4cncnc4)nn2-c2ccccc2Cl)CC3)o1	< 800
CCc1csc(CCNC(=O)Nc2nc3c(s2)-c2c(c(-c4cccnc4)nn2C2CCN(C)CC2)CC3)n1	< 800
O=C(NC[C@H]1CCNC1)Nc1nc2c(s1)-c1c(c(-c3ccccc3)nn1-c1cccc(Cl)c1)CC2	< 800
O=C(Nc1nc2c(s1)-c1c(cnn1-c1ccccc1)CC2)N1CCCCC1	< 800
COc1ccc(S(=O)(=O)NCCNC(=O)Nc2nc3c(s2)-c2c(c(-c4ccccc4)nn2-c2ccccc2Cl)CC3)cc1	< 800
CC(C)c1nnc(CCNC(=O)Nc2nc3c(s2)-c2c(c(C4CC4)nn2-c2ccccc2Cl)CC3)o1	< 800
CNC(=O)c1cccc(CNC(=O)Nc2nc3c(s2)-c2c(c(C4CC4)nn2-c2ccccc2Cl)CC3)c1	< 800
